# Test results taken from patent US20200231638A1, “STABILIZED ANTI-MICROBIAL PEPTIDES” (priority 2015, published 2020).
# Bridge positions count the residues as written; N and C are the ends. Square brackets hold non-standard residues; d marks the D form. Peptide text beside a SMILES is read from it. S5 = C=CCCC[C@](C)(N)C(=O)O; Nle = CCCC[C@H](N)C(=O)O
# Assays:
# [1] = system: S. aureus; assay type: cell-based, Staphylococcus aureus
# Procedure, shortened: (§1)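 Microdilution MIC test in polyanion-depleted MHB, with a final inoculum of 5×10^5 CFU/ml and 20-24 h incubation at 37° C.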
# [2] = system: P. aeruginosa; assay type: cell-based, Pseudomonas aeruginosa
# Procedure, shortened: as §1
# [3] = system: B. cereus; assay type: cell-based, Bacillus cereus
# Procedure, shortened: as §1
# [4] = system: human red blood cells; assay type: cell-based; settings: red cells of human, 1 h, 25
# Method: FIG. 5 is a series of line graphs depicting the hemolytic activity of magainin II and stapled analogues. Peptides were incubated with 1% (v/v) human red blood cells in phosphate-buffered solution for 1 hour at 37° C. and then the supernatant was isolated and the amount of hemoglobin released was measured at 540 nm. % hemolysis was calculated relative to an untreated control.
# Hemolytic Activity Assay:
# For the determination of hemolytic activity, human blood samples were centrifuged to isolate red blood cells (RBCs), which are then washed and suspended in phosphate-buffered saline to yield a 1% (v/v) suspension. The suspension was then added to serial dilutions of peptide stocks in water in clear round-bottom polypropylene 96-well plates and the plates were incubated for 1 hour at 37° C. After incubation, the plates were centrifuged and the supernatant was isolated to determine the amount of hemoglobin released using a spectrophotometer (570 nm), according to the equation: % Hemolysis=(Treated Absorbance−Untreated Control Absorbance)/(1% Triton-X100 Treated Absorbance−Untreated Control Absorbance). The minimum hemolytic concentration (MHC) is the peptide concentration at which there is less than 1% hemoglobin release.
# [5] = system: E. coli; assay type: cell-based, Escherichia coli
# Procedure, shortened: as §1
SMILES,MIC S. aureus [1] [µg/mL],MIC P. aeruginosa [2] [µg/mL],MIC B. cereus [3] [µg/mL],% Hemolysis at 25 μg/ml [4] [%],MIC E. coli [5] [µg/mL]
CCCC[C@H](NC(=O)[C@@H](NC(=O)[C@]1(C)CCCC=CCCC[C@](C)(NC(=O)[C@H](CCCCN)NC(=O)CNC(=O)[C@H](Cc2ccccc2)NC(=O)[C@H](CCCCN)NC(=O)[C@H](CCCCN)NC(=O)[C@H](C)NC(=O)[C@H](CO)NC(=O)[C@H](Cc2c[nH]cn2)NC(=O)[C@H](CC(C)C)NC(=O)[C@H](Cc2ccccc2)NC(=O)[C@H](CCCCN)NC(=O)CNC(=O)[C@@H](NC(=O)CN)[C@@H](C)CC)C(=O)N[C@@H](Cc2ccccc2)C(=O)N[C@@H](C(C)C)C(=O)NCC(=O)N1)[C@@H](C)CC)C(=O)N[C@@H](CC(N)=O)C(=O)N[C@@H](CO)C(N)=O [Mag(i + 4)14] (H-GIGKFLHSAKKFGK[S5]FVG[S5]I[Nle]NS-NH2; staple 15-19),3.1,3.1,3.1,92.1,1.6
"CCCC[C@H](NC(=O)[C@]1(C)CCCC=CCCC[C@](C)(NC(=O)[C@H](C)NC(=O)[C@H](CCCCN)NC(=O)CNC(=O)[C@H](Cc2ccccc2)NC(=O)[C@H](CCCCN)NC(=O)[C@H](CCCCN)NC(=O)[C@H](CCC(=O)O)NC(=O)[C@H](CO)NC(=O)[C@H](Cc2c[nH]cn2)NC(=O)[C@H](CC(C)C)NC(=O)[C@H](Cc2ccccc2)NC(=O)[C@H](CCCCN)NC(=O)CNC(=O)[C@@H](NC(=O)CN)[C@@H](C)CC)C(=O)N[C@@H](C(C)C)C(=O)NCC(=O)N[C@@H](CCC(=O)O)C(=O)N1)C(=O)N[C@@H](CC(N)=O)C(=O)N[C@@H](CO)C(N)=O [Mag(i + 4)15(A9E), GIGKFLHSEKKFGKAXVGEXBNS] (H-GIGKFLHSEKKFGKA[S5]VGE[S5][Nle]NS-NH2; staple 16-20)",>50,>50,>50,0.6,50
"CCCC[C@H](NC(=O)[C@]1(C)CCCC=CCCC[C@](C)(NC(=O)[C@H](C)NC(=O)[C@H](CCCCN)NC(=O)CNC(=O)[C@H](Cc2ccccc2)NC(=O)[C@H](CCCCN)NC(=O)[C@H](CCCCN)NC(=O)[C@H](CCCCN)NC(=O)[C@H](CO)NC(=O)[C@H](Cc2c[nH]cn2)NC(=O)[C@H](CC(C)C)NC(=O)[C@H](Cc2ccccc2)NC(=O)[C@H](CCCCN)NC(=O)CNC(=O)[C@@H](NC(=O)CN)[C@@H](C)CC)C(=O)N[C@@H](C(C)C)C(=O)NCC(=O)N[C@@H](CCC(=O)O)C(=O)N1)C(=O)N[C@@H](CC(N)=O)C(=O)N[C@@H](CO)C(N)=O [Mag(i + 4)15(A9K), GIGKFLHSKKKFGKAXVGEXBNS] (H-GIGKFLHSKKKFGKA[S5]VGE[S5][Nle]NS-NH2; staple 16-20)",>50,12.5,>50,1.9,3.1
"CCCC[C@H](NC(=O)[C@]1(C)CCCC=CCCC[C@](C)(NC(=O)[C@H](CCC(=O)O)NC(=O)[C@H](CCCCN)NC(=O)CNC(=O)[C@H](Cc2ccccc2)NC(=O)[C@H](CCCCN)NC(=O)[C@H](CCCCN)NC(=O)[C@H](C)NC(=O)[C@H](CO)NC(=O)[C@H](Cc2c[nH]cn2)NC(=O)[C@H](CC(C)C)NC(=O)[C@H](Cc2ccccc2)NC(=O)[C@H](CCCCN)NC(=O)CNC(=O)[C@@H](NC(=O)CN)[C@@H](C)CC)C(=O)N[C@@H](C(C)C)C(=O)NCC(=O)N[C@@H](CCC(=O)O)C(=O)N1)C(=O)N[C@@H](CC(N)=O)C(=O)N[C@@H](CO)C(N)=O [Mag(i + 4)15(A15E), GIGKFLHSAKKFGKEXVGEXBNS] (H-GIGKFLHSAKKFGKE[S5]VGE[S5][Nle]NS-NH2; staple 16-20)",50,25,25,3.8,3.1
